How the values were obtained:
[1] = target: T1, human RORγt ligand binding domain (RORγt LBD) (Homo sapiens, UniProt P51449); test: RORγt ThermoFluor assay; settings: estimated from thermal shift concentration response
T1 construct: His-tag (N); TurboTEV protease cleavage site (ENLYFQG) (N); made in house; host or cells: E. coli (pHIS1, a modified pET expression vector)
T1 sequence (P51449 with tags, fused parts or gaps): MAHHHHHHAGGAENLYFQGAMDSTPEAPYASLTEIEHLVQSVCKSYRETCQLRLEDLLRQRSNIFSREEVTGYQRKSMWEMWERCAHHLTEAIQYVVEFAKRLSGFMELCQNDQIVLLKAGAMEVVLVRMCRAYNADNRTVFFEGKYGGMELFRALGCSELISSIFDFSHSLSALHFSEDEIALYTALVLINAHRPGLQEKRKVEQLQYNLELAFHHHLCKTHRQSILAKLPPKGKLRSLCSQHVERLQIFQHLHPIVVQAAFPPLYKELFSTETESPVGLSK
In short: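 Thermal shift of RORγt LBD (0.065 mg/mL) with 60 μM 1,8-ANS in 100 mM Hepes pH 7.0, NaCl, GSH, 0.002% Tween-20, heated at 1° C/min. ANS fluorescence tracked versus temperature; ΔTm relative to DMSO wells. Compounds serially diluted 1:2 from 10 mM DMSO stock.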

full-length human RORγt = target: T2, full-length human RORγt (Homo sapiens, UniProt P51449); test: RORγt (full-length human) Reporter Assay, Conditions A; assay type: cell-based; settings: for IC50: HEK293T cells, GAL4-DBD-RORγt, luciferase, read-out: RORγt (FL) Reporter Assay A, IC50; for inhibition at 6 µM: read-out: RORγt (FL) Reporter Assay A, % inhibition @ 6 μM, 6 μM compound; for inhibition at 2 µM: read-out: RORγt (FL) Reporter Assay A, % inhibition (* at 2 μM), 2 μM compound concentration (footnote *)
T2 construct: expressed in transfected cells; host or cells: HEK293T, transiently transfected with pCMV-BD-ROR
T2 sequence (P51449 1-497 isoform P51449-2): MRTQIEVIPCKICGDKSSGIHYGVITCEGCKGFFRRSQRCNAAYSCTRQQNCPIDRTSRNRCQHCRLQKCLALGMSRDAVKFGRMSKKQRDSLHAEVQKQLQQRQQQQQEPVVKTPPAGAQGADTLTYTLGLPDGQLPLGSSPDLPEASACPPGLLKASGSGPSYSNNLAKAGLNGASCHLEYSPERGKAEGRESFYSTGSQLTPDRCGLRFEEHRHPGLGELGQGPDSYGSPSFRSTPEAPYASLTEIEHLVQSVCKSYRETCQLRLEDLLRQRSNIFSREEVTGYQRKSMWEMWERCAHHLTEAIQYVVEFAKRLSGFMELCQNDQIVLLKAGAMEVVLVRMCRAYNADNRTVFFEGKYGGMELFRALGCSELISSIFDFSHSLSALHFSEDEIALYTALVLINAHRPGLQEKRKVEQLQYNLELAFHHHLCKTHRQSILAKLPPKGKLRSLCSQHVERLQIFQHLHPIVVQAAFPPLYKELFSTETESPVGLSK
In short: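 Dual-luciferase readout after overnight (16 to 20 hours) treatment: firefly values scaled between DMSO-only and saturating reference-compound controls, then corrected by Renilla. Percent inhibition calculated against DMSO control, with IC50 derived from concentration-response plots.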

Compound | Kd [1] [nM] | IC50 (full-length human RORγt) [nM] | inhibition at 6 µM (full-length human RORγt) [%] | inhibition at 2 µM (full-length human RORγt) [%]
C[C@H](NS(=O)(=O)c1ccc(-c2sc(-c3nnc(CC(C)(C)O)o3)nc2C(=O)N2CC(F)(F)C[C@@H]2C)c(Cl)c1Cl)C(F)(F)F [Example 3/2, 2,3-Dichloro-4-(4-((S)-4,4-difluoro-2-methylpyrrolidine-1-carbonyl)-2-(5-(2-hydroxy-2-methylpropyl)-1,3,4-oxadiazol-2-yl)thiazol-5-yl)-N—((S)-1,1,1-trifluoropropan-2-yl)benzenesulfonamide] | 0.59 | 23 | 107 | –
CC1CCN(C(=O)c2nc(-c3nnc(C(C)(C)O)o3)sc2-c2ccc(S(=O)(=O)N[C@@H](C)C(F)(F)F)c3ccccc23)CC1 [Example 4, (S)-4-(2-(5-(2-Hydroxypropan-2-yl)-1,3,4-oxadiazol-2-yl)-4-(4-methylpiperidine-1-carbonyl)thiazol-5-yl)-N-(1,1,1-trifluoropropan-2-yl)naphthalene-1-sulfonamide] | 1.5 | 19 | – | 103
CC(C)(O)c1nnc(-c2nc(C(=O)N3CCC(F)(F)CC3)c(-c3ccc(CC(O)(C(F)(F)F)C(F)(F)F)c(Cl)c3Cl)s2)o1 [Example 8/2, (5-(2,3-Dichloro-4-(3,3,3-trifluoro-2-hydroxy-2-(trifluoromethyl)propyl)phenyl)-2-(5-(2-hydroxypropan-2-yl)-1,3,4-oxadiazol-2-yl)thiazol-4-yl)(4,4-difluoropiperidin-1-yl)methanone] | 1.7 | 51 | – | 104
C[C@H](NS(=O)(=O)c1ccc(-c2sc(-c3nnc(C(C)(C)O)o3)nc2C(=O)N2CC(F)(F)C[C@@H]2C)c(C(F)F)c1F)C(F)(F)F [Example 6/4, 4-(4-((S)-4,4-Difluoro-2-methylpyrrolidine-1-carbonyl)-2-(5-(2-hydroxypropan-2-yl)-1,3,4-oxadiazol-2-yl)thiazol-5-yl)-3-(difluoromethyl)-2-fluoro-N—((S)-1,1,1-trifluoropropan-2-yl)benzenesulfonamide] | 6.8 | 82 | 108 | –
CC[C@H](NS(=O)(=O)c1ccc(-c2sc(-c3noc(CC(C)(C)C(=O)O)n3)nc2C(=O)N2CC(F)(F)C[C@@H]2C)c(C(F)F)c1Cl)C(F)(F)F [Example 10/3, 3-(3-(5-(3-Chloro-2-(difluoromethyl)-4-(N—((S)-1,1,1-trifluorobutan-2-yl)sulfamoyl)phenyl)-4-((S)-4,4-difluoro-2-methylpyrrolidine-1-carbonyl)thiazol-2-yl)-1,2,4-oxadiazol-5-yl)-2,2-dimethylpropanoic acid] | 0.0036 | 50 | 97 | –

The remaining molecules from weak to strong by Kd [1], led by results:

Kd [1] [nM] | IC50 (full-length human RORγt) [nM] | inhibition at 6 µM (full-length human RORγt) [%] | inhibition at 2 µM (full-length human RORγt) [%] | Compound
30 | 120 | 102 | – | CC[C@H](NS(=O)(=O)c1ccc(-c2sc(-c3noc(CC(C)(C)O)n3)nc2C(=O)N2CCC(F)(F)C2)c(C(F)F)c1F)C(F)(F)F [Example 12/1, (S)-3-(Difluoromethyl)-4-(4-(3,3-difluoropyrrolidine-1-carbonyl)-2-(5-(2-hydroxy-2-methylpropyl)-1,2,4-oxadiazol-3-yl)thiazol-5-yl)-2-fluoro-N-(1,1,1-trifluorobutan-2-yl)benzenesulfonamide]
16 | 72 | 110 | – | CCCN(C)C(=O)c1nc(-c2nnc(C(C)(C)O)o2)sc1-c1ccc(S(=O)(=O)N[C@@H](C)C(F)(F)F)c(Cl)c1Cl [Example 6/6, (S)-5-(2,3-Dichloro-4-(N-(1,1,1-trifluoropropan-2-yl)sulfamoyl)phenyl)-2-(5-(2-hydroxypropan-2-yl)-1,3,4-oxadiazol-2-yl)-N-methyl-N-propylthiazole-4-carboxamide]
0.6 | 23 | 103 | – | C[C@H](NS(=O)(=O)c1ccc(-c2sc(-c3nnc(C(C)(C)O)o3)nc2C(=O)N2CC(F)(F)C[C@@H]2C)c(Cl)c1Cl)C(F)(F)F [Example 6/5, 2,3-Dichloro-4-(4-((S)-4,4-difluoro-2-methylpyrrolidine-1-carbonyl)-2-(5-(2-hydroxypropan-2-yl)-1,3,4-oxadiazol-2-yl)thiazol-5-yl)-N—((S)-1,1,1-trifluoropropan-2-yl)benzenesulfonamide]

— patent US9845319B2, “Amide substituted thiazoles as modulators of RORyt” (Janssen Pharmaceutica NV, priority 2014, dated 2017)
